Legend:
CFU-E = assay: Colony formation assay (CFA), cord blood LDMNC: CFU-E colonies; assay type: cell-based, human; details: for CFU-E progenitor number, fold increase: 2 U/ml Epo, ambient O2, vs vehicle control; for fold increase in CFU-E at 5% O2: 5% O2, 2 U/ml Epo, 1.0 mg/ml HAo or HEMOLINK, 100 μM hemin, relative to untreated controls at ambient O2
Procedure: (§1) This technique, referred to as the colony formation assay (CFA), is the most widely used biological assay to identify and enumerate erythroid progenitors present in hematopoietic tissue such as blood and bone marrow. Cell populations containing erythroid progenitors are plated in semi-solid suspensions of methyl cellulose, agar, low melting agarose or related substances in nutrient culture medium containing 1-3 U/ml Epo and 10 ng/ml IL-3 to specifically stimulate erythroid progenitors. Plates are incubated at 37° C. for 14 days during which time the erythroid progenitors form characteristic hemoglobinized (red) colonies. Two distinct but related erythroid progenitors can be distinguished based on colony size and morphology: BFU-E, the most primitive recognizable erythroid progenitor forms large multilobular colonies whereas the more mature CFU-E forms smaller spherical colonies.
(§2) Adult hemoglobin was purified according to U.S Pat. Nos. 5,439,591 and 5,545,328 to obtain HAo and HEMOLINK™ was prepared from HAo according to U.S. Pat. No. 5,532,352. Human umbilical cord blood intended for discard was collected from the umbilical vein of placentas immediately postpartum into 10 ml vacutainer tubes containing 143 USP units/ml sodium heparin. Low density mononuclear cells were separated from red blood cells by centrifugation over a 1.077 g/ml density gradient Cells removed from the plasma/density gradient interface were incubated overnight in a tissue culture flask with 10 ml cell culture medium containing 10% fetal bovine serum, and non-adherent LDMNC were further purified with an additional density gradient step. The LDMNC were then plated into colony formation assays (CFA) on the second day of isolation. In the CFA, LDMNC were plated at a density of 1×10^5 cells/ml in Iscoves modified Dulbeccos cell culture medium containing 0.8% methyl-cellulose, 30% fetal bovine serum, 1% bovine serum albumin, 0.1 mM 2-mercaptoethanol and 2 mM L-glutamine. Unless indicated otherwise, under standard CFA conditions 2 U/ml Epo and 10 ng/ml IL-3 are added to the formulation to stimulate hematopoietic progenitor growth, specifically BFU-E, CFU-E and CFU-GM.
(§3) Each condition was tested in duplicate in from 2-18 independent experiments. Cultures were maintained in a humidified incubator at 37° C., 5% CO2 and ambient oxygen tensions. The number of hematopoietic progenitors was scored between days 13-15 by counting the number and types of colonies present.
(§4) Erythroid progenitor colony formation assays were conducted as described in Example 1 except that cultures were incubated at either ambient oxygen tensions (˜20% O2) or 5% O2. The reduced oxygen tension of 5% O2 approximates the physiological intravascular oxygen tension in mammals. The mean fold increase in cord blood BFU-E, CFU-E and CFU-GM progenitor number at 5% O2 produced by 1.0 mg/ml HAo (15.6 μM; n=11) or HEMOLINK™ (15.6 μM; n=6), 100 μM hemin (n=10), 250 μM FeCl3 (n=6) or no addition (n=17-18), is shown FIG. 2. Results are expressed relative to control cells treated only with respective vehicles and cultured at ambient oxygen tensions (˜20% O2; fold expansion=1.0; *p<0.05, **p<0.01).
(§5) Erythroid progenitor colony formation assays were conducted as described in Example 1 except that cultures were initiated in the presence of Epo concentrations ranging from 0-2 U/ml. The mean fold increase in cord blood BFU-E, CFU-E and CFU-GM progenitor number produced by 1.0 mg/ml HAo (15.6 μM; n=9) or HEMOLINK™ (15.6 μM; n=6), 100 μM hemin (n=8), 250 μM FeCl3 (n=6), or no addition (n=9-10) in the presence of reduced Epo concentrations (0.2 U/ml) is shown in FIG. 3. Cultures were maintained at ambient oxygen tensions (˜20% O2) for 14 days. Results are expressed relative to control cells at 2 U/ml Epo treated only with the respective vehicles (solid line at fold expansion=1.0; *p<0.05, **p<0 01). Erythroid progenitor colonies were undetectable in the absence of Epo. […]

CFU-GM = assay: Colony formation assay (CFA), cord blood LDMNC: CFU-GM colonies; assay type: cell-based, human; details: 2 U/ml Epo; for effect on CFU-GM numbers (in words): ambient O2; for CFU-GM progenitor number, fold increase: ambient O2, vs vehicle control
Procedure: as §1, §2, §3
The effect of the various additives on the inhibitory effect of succinylacetone (SA), a heme synthesis inhibitor, on erythroid progenitors was determined. Primary LDMNC were cultured in methyl cellulose as described in Example 1. Cord blood LDMN were plated in the presence of 1.0 mg/ml HAo (15.6 μM; n=12) or HEMOLINK™ (15.6 μM; n=5), 100 μM hemin (n=12), 250 μM FeCl3 (n=11) or no addition (n=12), in absence or presence of 0.5 mM SA. Cultures were maintained in a humidified chamber at 37° C., 5% CO2, and ambient oxygen tensions for 14 days.
HEMOLINK™ was evaluated for its ability to protect erythroid progenitor cells from toxicity due to ganciclovir. Cord blood LDMNC were set up in CFAs in the presence and absence of 1 mg/ml HEMOLINK™ plus 0, 0.1, 1.0, 10, 50 or 100 μM ganciclovir. Conditions for the CFA were similar to those described in Examples 1-4. […] All data are expressed relative to the number of colonies of control plates without HEMOLINK™. The hematopoietic progenitors display different sensitivities to ganciclovir. CFU-E were unaffected by 1 μM ganciclovir. However, a similar inhibition of BFU-E occurs at a 50-fold lower dose of ganciclovir (1 μM). […] Due to the difficulty in scoring CFU-GM in the presence of hemoglobin precipitates, as previously noted, they could not be accurately measured under these conditions. Thus, HEMOLINK™ reduces toxicity of ganciclovir to erythroid progenitors with the most pronounced effect on BFU-E cells.

erythroid progenitors = assay: Colony formation assay (CFA), cord blood LDMNC: erythroid progenitor colonies overall; assay type: cell-based, human; details: for growth of erythroid progenitor colonies in the absence of Epo: 0 U/ml Epo; for size and colour of erythroid colonies: 2 and 0.2 U/ml Epo, ambient or 5% O2, 1.0 mg/ml HAo or HEMOLINK, 100 μM hemin, day 14
Procedure: as §1, §2, §3, §4, §5

[1] = Safety in animal experiments and Phase I clinical trial; assay type: in vivo; details: series of animal experiments and Phase I clinical trial in humans
Description: A preferred embodiment of the present invention is the therapeutic application of hemoglobin to the treatment of anemia. HEMOLINK™ is a hemoglobin based oxygen carrier intended for use as a red blood cell substitute at doses that may exceed. 100 g. […] The present invention specifically proposes the repetitive administration of HEMOLINK™ in small doses to patients with anemia of any type. The anemias most amenable to hemoglobin therapy include: (1) anemias due to insufficient Epo production, including chronic renal failure, malaria, AIDS, rheumatoid arthritis, anemia of cancer, sickle cell anemia, prematurity and late anemia associated with Rhesus hemolytic disease of the newborn; (2) anemias due to inadequate iron incorporation, including iron-deficient anemias and anemias associated with chronic disease (e.g. infection, inflammation, trauma, or neoplastic diseases); and (3) anemias due to bone marrow failure that may be idiopathic or drug-induced.

[2] = dose 1000 μg/ml, underestimated due to hemoglobin precipitates

Compound	CFU-E progenitor number, fold increase (CFU-E; dose 1.0 μM)	CFU-E progenitor number, fold increase (CFU-E; dose 10 μM)	CFU-E progenitor number, fold increase (CFU-E; dose 250 μM)	effect on CFU-GM numbers (in words) (CFU-GM)	CFU-GM progenitor number, fold increase (CFU-GM; dose 1.0 μM)	CFU-GM progenitor number, fold increase (CFU-GM; dose 10 μM)	CFU-GM progenitor number, fold increase (CFU-GM; dose 100 μM)	CFU-GM progenitor number, fold increase (CFU-GM; dose 250 μM)	fold increase in CFU-E at 5% O2 (CFU-E)	growth of erythroid progenitor colonies in the absence of Epo (erythroid progenitors)	size and colour of erythroid colonies (erythroid progenitors)	CFU-GM progenitor number, fold increase (CFU-GM; [2])	also measured
[Cl][Fe]([Cl])[Cl] [FeCl3]	1.0 fold	1.2 fold	1.1 fold	unaffected	1.2 fold	1.0 fold	0.8 fold	1.3 fold					number of erythroid colonies at 0.2 U/ml Epo and 5% O2 (in words) (erythroid progenitors; 5% O2, 0.2 U/ml Epo, 250 μM FeCl3): did not significantly increase the number of erythroid colonies; fold expansion of erythroid progenitors at 5% O2 (in words) (erythroid progenitors; 5% O2, 2 U/ml Epo, 250 μM FeCl3): did not increase the fold expansion of erythroid progenitors beyond that of the untreated controls at 5% O2
C=CC1=C(C)C2=Cc3c(C=C)c(C)c4[n]3[Fe-2]35([Cl])[n]6c(c(C)c(CCC(=O)O)c6=CC6=[N+]3C(=C4)C(C)=C6CCC(=O)O)=CC1=[N+]25 [hemin]	1.2 fold	*1.6 fold	2.2 fold	unaffected	1.5 fold	1.4 fold	1.0 fold	1.4 fold	~3 fold	could not support the growth of erythroid progenitor colonies in the absence of Epo	mostly smaller and less red in color		CFU-E progenitor number, fold increase (CFU-E; dose 64 μM): 1.8 fold; CFU-GM progenitor number, fold increase (CFU-GM; dose 64 μM): 1.2 fold
HAo: adult human hemoglobin obtained from red blood cells and purified by displacement chromatography; uncross linked product				does not stimulate CFU-GM					~3 fold	could not support the growth of erythroid progenitor colonies in the absence of Epo	larger and redder	**0.5 fold	CFU-E progenitor number, fold increase (CFU-E; dose 10 μg/ml): 1.2 fold; CFU-E progenitor number, fold increase (CFU-E; dose 100 μg/ml): 1.5 fold; CFU-E progenitor number, fold increase (CFU-E; dose 500 μg/ml): *1.4 fold; CFU-GM progenitor number, fold increase (CFU-GM; dose 10 μg/ml): 1.4 fold; CFU-GM progenitor number, fold increase (CFU-GM; dose 100 μg/ml): 1.5 fold; CFU-GM progenitor number, fold increase (CFU-GM; dose 500 μg/ml): 1.2 fold; concentration at which significant stimulation of erythroid progenitor colony formation is observed (erythroid progenitors; 2 U/ml Epo, ambient O2): 7.8 µM
HEMOLINK™: chemically crosslinked hemoglobin prepared by treating human hemoglobin with a polyaldehyde (O-raffinose)									~3 fold	could not support the growth of erythroid progenitor colonies in the absence of Epo	larger and redder	*0.6 fold	protection of CFU-E from ganciclovir toxicity (CFU-E; 1 mg/ml HEMOLINK plus 0-100 μM ganciclovir): protects CFU-E; safety [1]: demonstrated to be safe

From patent US20020120098A1, “Enhanced stimulation of erythropoiesis” (priority 1996, published 2002)
